Measured values as given in the supplement of paper PMC10307832.

How the values were obtained:
Assay in all cases: relative viability (nuclei count vs DMSO), 5 days (fraction); higher = more cells survive
Apatinib + Vorinostat = compound: N#CC1(c2ccc(NC(=O)c3cccnc3NCc3ccncc3)cc2)CCCC1 [Apatinib] + O=C(CCCCCCC(=O)Nc1ccccc1)NO [Vorinostat] (partner 1 µM)
Summary of the method: (§1)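 Lung cancer cell lines in 1536-well plates were dosed by pin tool the day after seeding, either with one drug alone or with a fixed anchor-drug dose plus five library-drug doses (not always all listed) in √10 steps. After 5 days, cells were fixed and their nuclei stained in one step (final 0.05% Triton X-100, 1% formaldehyde, 1 ug/ml Hoechst), then counted on 4× images. Relative viability is the nuclei count in treated wells divided by that in vehicle wells. Values are medians of duplicate plates.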

Metformin + Alpelisib = compound: CN(C)C(=N)NC(=N)N [Metformin] + Cc1nc(NC(=O)N2CCC[C@H]2C(N)=O)sc1-c1ccnc(C(C)(C)C(F)(F)F)c1 [Alpelisib] (partner 2 µM)
Summary of the method: as §1

Metformin + Trametinib = compound: CN(C)C(=N)NC(=N)N [Metformin] + CC(=O)Nc1cccc(-n2c(=O)n(C3CC3)c(=O)c3c(Nc4ccc(I)cc4F)n(C)c(=O)c(C)c32)c1 [Trametinib] (partner 0.02 µM)
Summary of the method: as §1

Metformin + Phenformin = compound: CN(C)C(=N)NC(=N)N [Metformin] + N=C(N)NC(=N)NCCc1ccccc1 [Phenformin] (partner 250 µM)
Summary of the method: as §1

Cell Line | relative viability (Apatinib + Vorinostat; first compound 0.08 µM) | relative viability (Apatinib + Vorinostat; first compound 0.253 µM) | relative viability (Apatinib + Vorinostat; first compound 0.8 µM) | relative viability (Apatinib + Vorinostat; first compound 2.53 µM) | relative viability (Apatinib + Vorinostat; first compound 8 µM) | relative viability (Metformin + Alpelisib; first compound 10 µM) | relative viability (Metformin + Alpelisib; first compound 31.62 µM) | relative viability (Metformin + Alpelisib; first compound 100 µM) | relative viability (Metformin + Alpelisib; first compound 316.23 µM) | relative viability (Metformin + Alpelisib; first compound 1000 µM) | relative viability (Metformin + Trametinib; first compound 10 µM) | relative viability (Metformin + Trametinib; first compound 31.62 µM) | relative viability (Metformin + Trametinib; first compound 100 µM) | relative viability (Metformin + Trametinib; first compound 316.23 µM) | relative viability (Metformin + Trametinib; first compound 1000 µM) | relative viability (Metformin + Phenformin; first compound 10 µM) | relative viability (Metformin + Phenformin; first compound 31.62 µM) | relative viability (Metformin + Phenformin; first compound 100 µM) | relative viability (Metformin + Phenformin; first compound 316.23 µM) | relative viability (Metformin + Phenformin; first compound 1000 µM)
EPLC-272H | 0.532 | 0.372 | 0.396 | 0.346 | 0.256 | 1.15 | 1.04 | 1.1 | 1.04 | 1.13 | 0.341 | 0.316 | 0.291 | 0.311 | 0.337 | 0.333 | 0.369 | 0.381 | 0.262 | 0.304
NCI-H23 | 0.696 | 0.793 | 0.568 | 0.491 | 0.524 | 0.825 | 0.941 | 0.696 | 0.715 | 0.901 | 0.433 | 0.492 | 0.384 | 0.385 | 0.575 | 0.743 | 0.716 | 0.716 | 0.729 | 0.897
LCLC-103H | 0.812 | 0.773 | 0.772 | 0.683 | 0.709 | 1.05 | 1 | 1.14 | 1.03 | 1 | 0.72 | 0.672 | 0.745 | 0.696 | 0.684 | 0.337 | 0.374 | 0.407 | 0.324 | 0.398
NCI-H1944 | 0.519 | 0.526 | 0.454 | 0.422 | 0.419 | 0.936 | 1.01 | 1.06 | 0.886 | 0.973 | 0.37 | 0.412 | 0.38 | 0.365 | 0.415 | 0.205 | 0.2 | 0.19 | 0.169 | 0.209
NCI-H2170 | 0.881 | 0.751 | 0.792 | 0.718 | 0.775 | 0.748 | 0.792 | 0.819 | 0.806 | 0.805 | 0.789 | 0.779 | 0.903 | 0.869 | 0.945 | 0.369 | 0.434 | 0.444 | 0.441 | 0.469
COR-L23 | 0.516 | 0.461 | 0.333 | 0.415 | 0.427 | 0.633 | 0.721 | 0.72 | 0.564 | 0.7 | 0.538 | 0.506 | 0.5 | 0.456 | 0.506 | 0.437 | 0.46 | 0.487 | 0.431 | 0.146
COR-L 105 | 1.09 | 0.795 | 0.872 | 0.782 | 0.805 | 1.14 | 1.33 | 1.07 | 0.963 | 0.802 | 0.428 | 0.479 | 0.511 | 0.454 | 0.489 | 0.727 | 0.61 | 0.65 | 0.568 | 0.494
HCC-15 | 0.9 | 0.876 | 0.871 | 0.887 | 0.706 | 0.921 | 1.07 | 1.03 | 0.659 | 0.919 |  | 0.396 | 0.4 | 0.37 | 0.395 |  | 0.495 | 0.464 | 0.426 | 0.491
NCI-H1666 | 1.03 | 1.03 | 1.05 | 0.976 | 0.915 | 0.943 | 1.05 | 1.12 | 0.981 | 1.29 | 0.687 | 0.676 | 0.759 | 0.771 | 0.941 |  | 0.575 | 0.569 | 0.499 | 0.58
HCC-78 | 0.524 | 0.396 | 0.427 | 0.402 | 0.374 | 0.408 | 0.537 | 0.57 | 0.469 | 0.598 |  | 1.3 | 1.15 | 1.1 | 0.541 | 0.685 | 0.716 | 0.627 | 0.651 | 0.782
A-427 | 0.861 | 0.852 | 0.855 | 0.866 | 0.853 | 1.07 | 1.14 | 1.02 | 1.05 | 1.03 | 0.719 | 0.868 | 0.725 | 0.692 | 0.54 | 0.32 | 0.376 | 0.325 | 0.284 | 0.287
NCI-H596 | 0.703 | 0.58 | 0.672 | 0.492 | 0.546 | 0.627 | 0.652 | 0.655 | 0.547 | 0.577 | 0.965 | 0.899 | 1.01 | 0.706 | 0.872 | 0.84 | 0.73 | 0.689 | 0.765 | 0.952
EMC-BAC-2 |  | 0.51 | 0.432 | 0.29 | 0.362 | 0.612 | 0.704 | 0.675 | 0.639 | 0.674 | 0.751 | 0.889 |  | 0.73 | 0.829 | 0.592 | 0.519 | 0.506 | 0.499 | 0.651
NCI-H2126 | 0.86 | 0.717 | 0.671 | 0.768 | 0.755 | 0.695 | 0.752 | 0.755 | 0.716 | 0.755 | 0.517 | 0.538 | 0.563 | 0.504 | 0.587 | 0.533 | 0.591 | 0.544 | 0.483 | 0.515
NCI-H1437 | 0.854 | 0.928 | 0.71 | 0.554 | 0.534 | 1.11 | 1.03 | 1.07 | 1.05 | 1.01 | 0.638 | 0.703 | 0.631 | 0.701 | 0.627 | 0.296 | 0.363 | 0.338 | 0.343 | 0.299
LXF-289 | 0.813 | 0.746 | 0.765 | 0.637 | 0.671 | 0.909 | 0.97 | 0.963 | 0.943 | 1.01 | 0.645 | 0.658 | 0.641 | 0.602 | 0.602 | 0.48 | 0.525 | 0.537 | 0.509 | 0.51
LK-2 | 0.267 | 0.269 | 0.248 | 0.145 | 0.228 | 1.56 | 1.53 | 1.63 | 1.36 | 1.32 | 0.829 | 1.23 | 1.54 | 1.08 | 1.26 | 0.758 | 0.636 | 0.374 | 0.381 | 0.667
LC-2-ad | 0.735 | 0.753 | 0.721 | 0.633 | 0.665 |  | 0.812 | 0.671 | 0.69 | 0.651 |  | 0.81 | 0.827 | 0.81 | 0.857 |  | 0.636 | 0.486 | 0.539 | 0.592
NCI-H2085 | 0.77 | 0.777 | 0.711 | 0.73 | 0.742 | 0.956 | 0.955 | 0.944 | 0.903 | 0.985 | 0.541 | 0.58 | 0.446 | 0.542 | 0.631 | 0.693 | 0.729 | 0.722 | 0.673 | 0.864
RERF-LC-KJ | 0.625 | 0.72 | 0.63 | 0.695 | 0.577 | 0.702 | 0.746 | 0.788 | 0.619 | 0.735 | 0.774 | 0.794 | 0.775 | 0.676 | 0.707 | 0.489 | 0.466 | 0.456 | 0.428 | 0.499
LOU-NH91 | 0.974 | 0.97 | 0.82 | 0.816 | 0.82 | 0.762 | 0.709 | 0.806 | 0.634 | 0.642 | 0.732 | 0.76 | 0.786 | 0.766 | 0.761 | 0.731 | 0.593 | 0.545 | 0.755 | 0.734
NCI-H2009 | 0.701 | 0.776 | 0.669 | 0.627 | 0.48 | 1.25 | 1.16 | 1.13 | 1.17 | 1.1 | 0.366 | 0.362 | 0.387 | 0.36 | 0.384 | 0.504 | 0.499 | 0.565 | 0.412 | 0.425
UMC-11 | 0.403 | 0.397 | 0.366 | 0.349 | 0.341 | 1.06 | 0.992 | 1.03 | 0.988 | 0.971 | 0.552 | 0.687 | 0.727 | 0.77 | 0.572 | 0.322 | 0.317 | 0.321 | 0.312 | 0.351
NCI-H2347 | 0.655 | 0.569 | 0.619 | 0.542 | 0.557 | 0.771 | 0.968 | 1.09 | 0.961 | 1.01 | 0.291 | 0.289 | 0.26 | 0.265 | 0.258 | 0.384 | 0.363 |  | 0.422 | 0.404
LU99A | 0.514 | 0.589 | 0.467 | 0.43 | 0.354 | 0.404 | 0.4 | 0.379 | 0.382 | 0.44 | 0.524 | 0.482 | 0.544 | 0.433 | 0.448 | 0.937 | 0.816 | 0.761 | 0.775 | 0.919
NCI-H3122 | 0.995 | 0.968 | 1.07 | 0.734 | 0.895 | 0.524 | 0.598 | 0.649 | 0.625 | 0.668 | 0.163 | 0.21 | 0.258 | 0.188 | 0.209 | 0.307 | 0.303 | 0.322 | 0.287 | 0.288
SW 1573 | 0.993 | 1.07 | 0.702 | 0.47 | 0.446 | 0.853 | 0.82 | 0.795 | 0.8 | 0.797 | 0.67 | 0.559 | 0.522 | 0.211 | 0.367 | 0.422 | 0.387 | 0.492 | 0.414 | 0.364
